One series concerns MV522 xenograft. Put plainly: 2-DG/Paclitaxel dosing study in mouse MV522 xenograft model. The format is in vivo. As to conditions: 2-DG alone, oral; 10 days of dosing more effective than 5.
The next series deals with MV522 cells. Description: Sulforhodamine B (SRB) growth inhibition assay. Format: cell-based. As to conditions: Homo sapiens, 72 hours treatment. How it is done: (§1) The human lung tumor cell lines were MV522 and NCI-H23, both of which were derived from tumors displaying histopathology of adenocarcinoma, one of the at least three types of NSCLC. The NCI-H23 tumor cell line is available from the ATCC (Rockville, Md.), and the MV522 cell line was obtained by Dr. M. J. Kelner of the University of California. The cells were cultured in RPMI medium (Nova Tech, Grand Island, N.Y.) at 37° C. in a humidified atmosphere containing 5% CO2. For passaging, cells grown in 75 cm^2 flasks (60–70% confluency) were washed with PBS and dislodged from the flasks with trypsin (Gibco BRL) before being passaged. Cells used for the experiments described below were centrifuged and resuspended in cell culture medium at a concentration of 10^5 cells/mL. A 100 microliter aliquot (ten thousand cells) was plated into each well of a 96-well microtiter plate.
(§2) Docetaxel (Taxotere™, Aventis Pharmaceuticals, Inc.) solubilized in 100% DMSO and diluted 1000×to the desired concentration (0.1% DMSO final concentration), was used as a positive control. […] Exponentially growing cells in 100 microliters of cell culture medium were plated on Day 0 in 96-well microtiter plates at a concentration of 10^4 cells/well. On Day 1, drugs were added to each well of the microtiter plate with the designated concentration in 100 microliter aliquots of cell culture medium and incubated at 37° C. in a humidified incubator (5% CO2/95% HEPA filtered air). After three days of treatment, adherent cells were fixed by adding 50 microliters of cold 50% trichloracetic acid to each well and incubating for one hour at 4° C. The supernatant was discarded, and plates were washed twice with de-ionized water and air-dried. One hundred microliters of SRB solution were added to each well of the plate and incubated ten minutes at room temperature. Unbound SRB stain was removed by washing twice with 1% acetic acid. The bound SRB stain was solubilized with 10 mM Tris buffer, and the optical densities read at a single wavelength of 515 nm.
(§3) IC50 values (50% effective dose) were calculated from two different experiments, each of which involved 6 replicates for each dose tested. […]

For another series, the system named is NCI-H23 cells. Description: Sulforhodamine B (SRB) growth inhibition assay. The format is cell-based. The following applies: Homo sapiens, 72 hours treatment. How it is done:
as §1, §2, §3

The conditions of series [1]: rat, in vivo.
Series [2] concerns MV522 human tumor carcinomas. Put plainly: Tumor growth delay study in mouse MV522 xenograft model (TH-PT-001). How it is done: Female nude mice (nu/nu) between 5 and 6 weeks of age and weighing approximately 20 g were obtained from Harlan, Inc. (Madison, Wis.). Animals were implanted subcutaneously by trocar with fragments of Mv522 human tumor carcinomas harvested from subcutaneously growing tumors in nude mice hosts. When the tumors were approximately 71 mg in size (11 days following inoculation), the animals were pair-matched into treatment and control groups. Each group contained 10 tumored mice. Each mouse was ear-tagged and followed individually throughout the experiment. Initial doses were given on Day 1 following pair-matching. […] Sterile water was administered orally bid×5 to end to serve as the negative control. Mice were weighed twice weekly, and tumor measurements were obtained using calipers twice weekly, starting on Day 1. These tumor measurements were converted to mg tumor weight by the standard formula (W^2×L)/2. Each mouse was sacrificed when its tumor weight reached 1000 mg. In this test, the average day of sacrifice was determined for all groups and the tumor growth delay (TGD) for each treatment group, compared to the control group, was calculated.
All of these studies are outlined in the following table.

Series [3] concerns human non-small cell lung cancer (NSCLC) tumor cell lines. Description: Proliferation with simultaneous 2-DG and Taxol treatment. The following applies: 1 mM 2-DG by itself. Format: cell-based.
For series [4] the following is noted: for deaths: bid×5. As to the method: The maximum tolerated dose determination for this study was conducted using female nude mice (nu/nu) between 5 and 6 weeks of age weighing approximately 20 g (Harlan, Inc., Madison, Wis.). Dosing began on Day 1. […] A 20 mL/kg dose volume was used to achieve doses of 2000, 4000, 6000, 8000, and 9000 mg/kg/dose. Individual mouse weights in grams were recorded twice weekly throughout the study. The average weight per group was calculated, and weight gain or loss was determined by comparing the current Day's average to the Day 1 average for that same group. The study was terminated on Day 21.

For orientation: IC50 means the concentration at which inhibition is half-maximal.

Where two headings read alike, the source gives them in different places.

With `O=CC[C@@H](O)[C@H](O)[C@H](O)CO` [2-DG, 2-deoxy-D-glucose], the tumor growth result in the series on MV522 xenograft is listed as “small delay in tumor growth”. For the same compound, the figures for the IC50 in the series with MV522 cells and in the series on NCI-H23 cells were 3.74 ± 0.74 mM and 1.85 ± 0.532 mM, respectively. For the same compound, the “visible signs of toxicity, multiple dose (5-day)” value in series [1] was “no visible signs of toxicity”. In series [1] (po), the “toxicity, single oral dose” value is on record as “non-toxic”. Moreover, the tumor growth rate entry in series [2] (2-DG single agent 0–2000 mg/kg/dose, twice a day) is “did not slow the tumor growth rate”. The “mean day of sacrifice” value in series [2] (2-DG single agent 750 mg/kg p.o. bid×5 to end) is listed as 28.9+/−3.7; in series [2] (2-DG single agent 1000 mg/kg p.o. (Days 1–14 dose 50 mg/kg) bid×5 to end) it was 27.2+/−2.7; in series [2] (2-DG single agent 1500 mg/kg p.o. (Days 1–14 dose 150 mg/kg) bid×5 to end), 28.2+/−4.6; in series [2] (2-DG single agent 2000 mg/kg p.o. (Days 1–14 dose 400 mg/kg) bid×5 to end) it was 29.4+/−3.1. The toxic deaths entry in series [2] (2-DG single agent groups) is on record as “no toxic deaths”. Also, in series [2] (mouse, in vivo), the weight loss result was “little weight loss”. Moreover, the effect on proliferation result in series [3] was “no effect on proliferation by itself”. Besides, the deaths entry in series [4] (6000 mg/kg/dose group) is “One mouse died”; in series [4] (8000 and 9000 mg/kg/dose groups) it was “All 5 mice died”. Also, in series [4] (mouse, in vivo), the “maximum tolerated dose (MTD)” value was determined as 4000 mg/kg/dose.
